Experimental data published in patent US20160362416A1, “ANTIVIRAL COMPOUNDS” (Gilead Sciences, Inc., priority 2012, published 2016).

What was measured:
[1] = system: Q30E in genotype 1a NS5A replicon; test: Resistance mutant replicon assay, genotype 1a NS5A Q30E; type: cell-based, HCV; conditions: Hepatitis C virus, read-out: 1a Q30E (nM)
How it was run: (§1)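 Site-directed mutagenesis → mutant Pi-RLuc replicon RNA → transient transfection, cured-51 Huh-7 cells → 3-fold serial cpd dilutions from DMSO stock, 72 h → RLuc read → EC50, non-linear regression.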

[2] = system: Y93H in genotype 3a NS5A replicon; test: Resistance mutant replicon assay, genotype 3a NS5A Y93H; type: cell-based, HCV; conditions: Hepatitis C virus, read-out: 3a Y93H (nM)
How it was run: as §1

[3] = IV and PO single dose pharmacokinetic studies in SD rats; type: in vivo; conditions: Sprague-Dawley, rat, plasma, male SD rats, IV infusion 1 mg/kg, oral gavage 2 mg/kg, read-out: Rat % F
How it was run: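 Fasted male Sprague-Dawley rats (n=3/group) dosed IV by 30-min jugular infusion at 1 mg/kg or by oral gavage at 2 mg/kg, in ethanol/PEG 400 vehicles at pH 2.0–2.2. Serial plasma to 24 h quantified by LC/MS/MS (SRM); non-compartmental analysis, linear-trapezoidal AUC, %F as oral vs IV AUC.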

[4] = system: Q30R in genotype 1a NS5A replicon; test: Resistance mutant replicon assay, genotype 1a NS5A Q30R; type: cell-based, HCV; conditions: Hepatitis C virus, read-out: 1a Q30R (nM)
Method: Evaluation of cell-based anti-HCV activity: Antiviral potency (EC50) was determined using a Renilla luciferase (RLuc)-based HCV replicon reporter assay. To perform the assay for genotype 1 and 2a JFH-1, stable HCV 1a RLuc replicon cells (harboring a dicistronic genotype 1a H77 replicon that encodes a RLuc reporter), stable HCV lb RLuc replicon cells (harboring a dicistronic genotype 1b Conl replicon that encodes a RLuc reporter), or stable HCV 2a JFH-1 Rluc replicon cells (harboring a dicistronic genotype 2a JFH-1 replicon that encodes a RLuc reporter; with L31 present in NS5A) were dispensed into 384-well plates for EC50 assays. To perform the assay for genotype 2a (with M31 present in NS5A) or 2b, NS5A chimeric genotype 2a JFH-1 replicons that encodes a RLuc-Neo reporter and either genotype 2a J6 strain NS5A gene or genotype 2b MD2b-1 strain NS5A gene (both with M31 present) respectively, were either transiently transfected (t) into Huh-Lunet cells or were established as stably replicating replicon cells (s) is provided. Either cells were dispensed into 384-well plates for EC50 assays. To perform the assay for genotype 3 and 4, NS5A chimeric genotype 1b Conl replicons that encodes a Pi-RLuc reporter and either genotype 3a S52 strain NS5A gene or genotype 4a ED43 strain NS5A gene respectively, were transiently transfected (t) into Huh-Lunet cells, which were subsequently dispensed into 384-well plates. Compounds were dissolved in DMSO at a concentration of 10 mM and diluted in DMSO either manually or using an automated pipeting instrument. Serially 3-fold diluted compounds were either manually mixed with cell culture media and added to the seeded cells or directly added to the cells using an automated instrument. DMSO was used as a negative (solvent; no inhibition) control, and the protease inhibitor ITMN-191 was included at a concentration >100×EC50 as a positive control. 72 hours later, cells were lysed and Renilla luciferase activity quantified as recommended by the manufacturer (Promega-Madison, Wis.). Non-linear regression was performed to calculate EC50 values.
To determine the antiviral potency (EC50) against resistance mutants, resistance mutations, including M28T, Q30R, Q30H, Q30E, L31M, Y93C, Y93H, and Y93N in genotype 1a NS5A, Y93H and L31V/Y93H in genotype 1b NS5A, and Y93H for in genotype 3a NS5A, were introduced individually into either 1a Pi-Rluc or 1b Pi-Rluc replicons by site directed mutagenesis. Replicon RNA of each resistant mutant was transiently transfected into Huh-7-derived cured-51 cells and antiviral potency was determined on these transfected cells as described above.

COC(=O)N[C@H](C(=O)N1[C@@H](C)CC[C@H]1c1ncc(-c2ccc3c(c2)COc2cc4c(ccc5nc([C@@H]6CC[C@H](C)N6C(=O)[C@@H](NC(=O)OC)C6CC(C)O[C@H](C)C6)[nH]c54)cc2-3)[nH]1)C(C)C (stereo in doubt) [Example AQ, Methyl {(2S)-1-[(2S,5S)-2-(5-{2-[(2S,5S)-1-{(2S)-2-[(2R,6R)-2,6-dimethyltetrahydro-2H-pyran-4-yl]-2-[(methoxycarbonyl)amino]acetyl}-5-methylpyrrolidin-2-yl]-1,11-dihydroisochromeno[4′,3′:6,7]naphtho[1,2-d]imidazol-9-yl}-1H-imidazol-2-yl)-5-methylpyrrolidin-1-yl]-3-methyl-1-oxobutan-2-yl}carbamate]
EC50 [1]: 0.074 nM | EC50 [2]: 0.703 nM | bioavailability [3]: 22.9%

CC[C@H]1CC[C@@H](c2nc3ccc4cc5c(cc4c3[nH]2)OCc2cc(-c3cnc([C@@H]4CC[C@H](C)N4C(=O)[C@@H](NC(=O)OC)C(C)C)[nH]3)ccc2-5)N1C(=O)[C@@H](NC(=O)OC)C1CCOCC1 [Comp 3, reference compound]
EC50 [1]: 0.526 nM | EC50 [2]: 14.1 nM | bioavailability [3]: 46.6%

CC[C@H](C)[C@H](NC(=O)OC)C(=O)N1[C@@H](C)CC[C@H]1c1ncc(-c2ccc3c(c2)COc2cc4c(ccc5nc([C@@H]6CC[C@H](C)N6C(=O)[C@@H](NC(=O)OC)C6CCOCC6)[nH]c54)cc2-3)[nH]1 [Comp 4, reference compound]
EC50 [1]: 0.432 nM | EC50 [2]: 0.695 nM | bioavailability [3]: 22.1%

CC[C@H](C)[C@H](NC(=O)OC)C(=O)N1[C@@H](C)CC[C@H]1c1nc2ccc3cc4c(cc3c2[nH]1)OCc1cc(-c2cnc([C@@H]3CC[C@H](C)N3C(=O)[C@@H](NC(=O)OC)C3CCOCC3)[nH]2)ccc1-4 [Comp 12, reference compound]
EC50 [2]: 17.7 nM | EC50 [4]: 1.28 nM | bioavailability [3]: 5.64%

CC[C@H](C)[C@H](NC(=O)OC)C(=O)N1[C@@H](C)CC[C@H]1c1ncc(-c2ccc3c(c2)COc2cc4c(ccc5nc([C@@H]6CC[C@H](C)N6C(=O)[C@@H](NC(=O)OC)C6C[C@@H](C)O[C@H](C)C6)[nH]c54)cc2-3)[nH]1 (stereo partly drawn) [Example AA, Methyl {(2S,3S)-1-[(2S,5S)-2-(5-{2-[(2S,5S)-1-{(2S)-2-[(2R,6R)-2,6-dimethyltetrahydro-2H-pyran-4-yl]-2-[(methoxycarbonyl)amino]acetyl}-5-methylpyrrolidin-2-yl]-1,11-dihydroisochromeno[4′,3′:6,7]naphtho[1,2-d]imidazol-9-yl}-1H-imidazol-2-yl)-5-methylpyrrolidin-1-yl]-3-methyl-1-oxopentan-2-yl}carbamate]
EC50 [1]: 0.145 nM | EC50 [2]: 0.544 nM | bioavailability [3]: 28.1%

COC(=O)N[C@H](C(=O)N1[C@@H](C)CC[C@H]1c1ncc(-c2ccc3c(c2)COc2cc4c(ccc5nc([C@@H]6CC[C@H](C)N6C(=O)[C@@H](NC(=O)OC)[C@H]6C[C@@H](C)O[C@@H](C)C6)[nH]c54)cc2-3)[nH]1)C(C)C [Example AM, Methyl {(2S)-1-[(2S,5S)-2-(5-{2-[(2S,5S)-1-{(2S)-2-[(2R,6S)-2,6-dimethyltetrahydro-2H-pyran-4-yl]-2-[(methoxycarbonyl)amino]acetyl}-5-methylpyrrolidin-2-yl]-1,11-dihydroisochromeno[4′,3′:6,7]naphtho[1,2-d]imidazol-9-yl}-1H-imidazol-2-yl)-5-methylpyrrolidin-1-yl]-3-methyl-1-oxobutan-2-yl}carbamate]
EC50 [1]: 1.21 nM | EC50 [2]: 8.06 nM | bioavailability [3]: 21.9%

COC(=O)N[C@H](C(=O)N1[C@@H](C)CC[C@H]1c1nc2ccc3cc4c(cc3c2[nH]1)OCc1cc(-c2cnc([C@@H]3CC[C@H](C)N3C(=O)[C@@H](NC(=O)OC)[C@H]3C[C@@H](C)O[C@@H](C)C3)[nH]2)ccc1-4)C(C)C [Example AO, Methyl {(2S)-1-[(2S,5S)-2-(9-{2-[(2S,5S)-1-{(2S)-2-[(2R,6S)-2,6-dimethyltetrahydro-2H-pyran-4-yl]-2-[(methoxycarbonyl)amino]acetyl}-5-methylpyrrolidin-2-yl]-1H-imidazol-5-yl}-1,11-dihydroisochromeno[4′,3′:6,7]naphtho[1,2-d]imidazol-2-yl)-5-methylpyrrolidin-1-yl]-3-methyl-1-oxobutan-2-yl}carbamate]
EC50 [1]: 1.78 nM | EC50 [2]: 9.06 nM | bioavailability [3]: 50.3%

COC(=O)N[C@H](C(=O)N1[C@@H](C)CC[C@H]1c1nc2ccc3cc4c(cc3c2[nH]1)OCc1cc(-c2cnc([C@@H]3CC[C@H](C)N3C(=O)[C@@H](NC(=O)OC)C3C[C@@H](C)O[C@H](C)C3)[nH]2)ccc1-4)C(C)C (some centres unmarked) [Example AS]
EC50 [1]: 0.115 nM | EC50 [2]: 0.732 nM | bioavailability [3]: 17.4%

COC(=O)N[C@H](C(=O)N1[C@@H](C)CC[C@H]1c1ncc(-c2ccc3c(c2)COc2cc4c(ccc5nc([C@@H]6CC[C@H](C)N6C(=O)[C@@H](NC(=O)OC)C6C[C@@H](C)O[C@H](C)C6)[nH]c54)cc2-3)[nH]1)C1C[C@@H](C)O[C@H](C)C1 (stereo partly drawn) [Example AU, Methyl {(1S)-1-[(2R,6R)-2,6-dimethyltetrahydro-2H-pyran-4-yl]-2-[(2S,5S)-2-(5-{2-[(2S,5S)-1-{(2S)-2-[(2R,6R)-2,6-dimethyltetrahydro-2H-pyran-4-yl]-2-[(methoxycarbonyl)amino]acetyl}-5-methylpyrrolidin-2-yl]-1,11-dihydroisochromeno[4′,3′:6,7]naphtho[1,2-d]imidazol-9-yl}-1H-imidazol-2-yl)-5-methylpyrrolidin-1-yl]-2-oxoethyl}carbamate]
EC50 [1]: 0.042 nM | EC50 [2]: 0.13 nM | bioavailability [3]: 16.4%

COC[C@H]1C[C@@H](c2ncc(-c3ccc4c(c3)COc3cc5c(ccc6nc([C@@H]7CC[C@H](C)N7C(=O)[C@@H](NC(=O)OC)C7C[C@@H](C)O[C@H](C)C7)[nH]c65)cc3-4)[nH]2)N(C(=O)[C@@H](NC(=O)OC)C2C[C@@H](C)O[C@H](C)C2)C1 (stereo partly drawn) [Example BH, Methyl {(1S)-1-[(2R,6R)-2,6-dimethyltetrahydro-2H-pyran-4-yl]-2-[(2S,5S)-2-(9-{2-[(2S,4S)-1-{(2S)-2-[(2R,6R)-2,6-dimethyltetrahydro-2H-pyran-4-yl]-2-[(methoxycarbonyl)amino]acetyl}-4-(methoxymethyl)pyrrolidin-2-yl]-1H-imidazol-5-yl}-1,11-dihydroisochromeno[4′,3′:6,7]naphtho[1,2-d]imidazol-2-yl)-5-methylpyrrolidin-1-yl]-2-oxoethyl}carbamate]
EC50 [2]: 0.612 nM | bioavailability [3]: 2.7%
